In patent publication US10865191B2, “Heterocyclic compounds useful as modulators of TNF alpha” (BRISTOL-MYERS SQUIBB COMPANY, priority 2015, dated 2020):
pIC50: −log10 of the molar value.

Biological target: TNFα (Homo sapiens, UniProt P01375)
Assay: TNF induced HEK-Blue assay (NF-kB-driven secreted alkaline phosphatase reporter)
Format: cell-based
Details: TNFα 0.5 ng/mL, HEK-Blue-CD40L cells, 18 h; read-out: TNF induced HEK-Blue assay IC50 value
In short: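 HEK-Blue-CD40L cells (NF-kB-driven SEAP reporter), 20,000/well, added after 30 min pre-incubation of compound (0.004–25 μM final) with TNFα 0.5 ng/mL final at 37 °C; 18 h incubation. SEAP read with QUANTI-Blue at 620 nm; IC50 from 4-parameter logistic fit, normalized to unstimulated and stimulated DMSO controls.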

Chain of TNFα (P01375 77-233 limits assumed): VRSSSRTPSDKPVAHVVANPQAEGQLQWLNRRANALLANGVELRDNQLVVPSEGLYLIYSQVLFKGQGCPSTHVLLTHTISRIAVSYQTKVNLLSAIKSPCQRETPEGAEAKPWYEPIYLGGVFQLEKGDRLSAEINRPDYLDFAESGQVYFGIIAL

| pIC50 | SMILES |
| --- | --- |
| > 6.00 | Cc1nc2ccc(-c3cnc(C(C)(C)O)nc3)cc2c(N[C@H](C)c2cc(N)ccc2F)c1Cl [Example 360, (R)-2-(5-(4-((1-(5-amino-2-fluorophenyl)ethyl)amino)-3-chloro-2-methylquinolin-6-yl)pyrimidin-2-yl)propan-2-ol] |
| 5.00 to 6.00 | C[C@@H](Nc1c(Cl)cnc2ccccc12)c1cc(-c2cnn(CC(C)(C)O)c2)ccc1F [Example 465, (R)-1-(4-(3-(1-((3-chloroquinolin-4-yl)amino)ethyl)-4-fluorophenyl)-1H-pyrazol-1-yl)-2-methylpropan-2-ol] |
| > 6.00 | CC(Nc1c(Cl)cnc2ccc(-c3ccc(C(C)(C)O)cc3)cc12)c1cscn1 (racemic) [Example 202, 2-(4-(3-chloro-4-((1-(thiazol-4-yl)ethyl)amino)quinolin-6-yl)phenyl)propan-2-ol] |
| 5.00 to 6.00 | CC(Nc1c(Cl)cnc2cc(F)c(-c3cnc(C(O)CN4CCOCC4)cn3)cc12)c1ccccc1F (centres unmarked) [Example 274, 1-(5-(3-chloro-7-fluoro-4-((1-(2-fluorophenyl)ethyl)amino)quinolin-6-yl)pyrazin-2-yl)-2-morpholinoethan-1-ol] |
| > 6.00 | CC(C)(O)c1ncc(-c2ccc3ncc(Cl)c(NCc4ccccc4C(F)(F)F)c3c2)cn1 [Example 146, 2-(5-(3-chloro-4-((2-(trifluoromethyl)benzyl)amino)quinolin-6-yl)pyrimidin-2-yl)propan-2-ol] |
| > 6.00 | CC(Nc1c(Cl)cnc2cc(F)c(-c3cc(F)c(C(C)(C)O)c(F)c3)cc12)c1ccccc1F (racemic) [Example 267, 2-(4-(3-chloro-7-fluoro-4-((1-(2-fluorophenyl)ethyl)amino)quinolin-6-yl)-2,6-difluorophenyl)propan-2-ol] |
| > 6.00 | COCC(C)(O)c1ncc(-c2cc3c(NC(C)c4ccccc4F)c(Cl)cnc3cc2F)cn1 (centres unmarked) [Example 293, 2-(5-(3-chloro-7-fluoro-4-((1-(2-fluorophenyl)ethyl)amino)quinolin-6-yl)pyrimidin-2-yl)-1-methoxypropan-2-ol] |
| > 6.00 | Cc1nc2ccc(-c3cnc(C(C)(C)O)nc3)cc2c(N[C@@H](c2cc(C(N)=O)ccc2F)C(F)F)c1Cl [Example 390, (S)-3-(1-((3-chloro-6-(2-(2-hydroxypropan-2-yl)pyrimidin-5-yl)-2-methylquinolin-4-yl)amino)-2,2-difluoroethyl)-4-fluorobenzamide] |
| 5.00 to 6.00 | CCOC(=O)c1nc2ccc(-c3cnc(C(C)(C)O)nc3)cc2c(N[C@H](C)c2cc(C#N)ccc2F)c1Cl [Example 384, ethyl (R)-3-chloro-4-((1-(5-cyano-2-fluorophenyl)ethyl)amino)-6-(2-(2-hydroxypropan-2-yl)pyrimidin-5-yl)quinoline-2-carboxylate] |
| > 6.00 | COc1ccc(F)c([C@@H](C)Nc2c(Cl)cnc3ccc(-c4cnc(C(C)(C)O)nc4)cc23)c1 [Example 327, (R)-2-(5-(3-chloro-4-((1-(2-fluoro-5-methoxyphenyl)ethyl)amino)quinolin-6-yl)pyrimidin-2-yl)propan-2-ol] |
| > 6.00 | Cc1nc2ccc(-c3cnc(C(C)(C)O)nc3)cc2c(N[C@H](C)c2cc(C(O)CO)ccc2F)c1Cl (mixture of isomers) [Example 397, 1-(3-((R)-1-((3-chloro-6-(2-(2-hydroxypropan-2-yl)pyrimidin-5-yl)-2-methylquinolin-4-yl)amino)ethyl)-4-fluorophenyl)ethane-1,2-diol] |
| 4.60 to 5.00 | CC(=O)NC(CO)c1ccc(-c2ccc3ncc(Cl)c(N[C@H](C)c4ccccc4F)c3c2)cc1 (stereo partly drawn) [Example 482, N-(1-(4-(3-chloro-4-(((R)-1-(2-fluorophenyl)ethyl)amino)quinolin-6-yl)phenyl)-2-hydroxyethyl)acetamide] |
| > 6.00 | CC(Nc1c(Cl)cnc2ccc(-c3cnc(C(C)(C)O)nc3)cc12)c1cc(F)ccc1F (racemic) [Example 160, 2-(5-(3-chloro-4-((1-(2,5-difluorophenyl)ethyl)amino)quinolin-6-yl)pyrimidin-2-yl)propan-2-ol] |
| > 6.00 | CC(C)(O)c1ncc(-c2nc3c(N[C@@H](c4cc(CO)ccc4F)C(F)F)c(Cl)cnc3cc2F)cn1 [Example 501, (S)-2-(5-(7-chloro-8-((2,2-difluoro-1-(2-fluoro-5-(hydroxymethyl)phenyl)ethyl)amino)-3-fluoro-1,5-naphthyridin-2-yl)pyrimidin-2-yl)propan-2-ol] |
| > 6.00 | Cc1nc2ccc(C3C=NC(C(C)(C)O)=NC3)cc2c(N[C@H](C)c2cc(CO)ccc2F)c1Cl (stereo partly drawn) [Example 432, (R)-2-(5-(3-chloro-4-((1-(2-fluoro-5-(hydroxymethyl)phenyl)ethyl)amino)-2-methylquinolin-6-yl)-4,5-dihydropyrimidin-2-yl)propan-2-ol] |
| > 6.00 | C=Cc1ccc(F)c([C@@H](C)Nc2c(Cl)cnc3cc(F)c(-c4cnc(C(C)(C)O)nc4)nc23)c1 [Example 188, (R)-2-(5-(7-chloro-3-fluoro-8-((1-(2-fluoro-5-vinylphenyl)ethyl)amino)-1,5-naphthyridin-2-yl)pyrimidin-2-yl)propan-2-ol] |

| pIC50 | SMILES |
| --- | --- |
| > 6.00 | Cc1nc2cc(F)c(-c3cnc(C(C)(C)O)nc3)cc2c(N[C@H](C)c2cc(CC(N)=O)ccc2F)c1Cl [Example 554, (R)-2-(3-(1-((3-chloro-7-fluoro-6-(2-(2-hydroxypropan-2-yl)pyrimidin-5-yl)-2-methylquinolin-4-yl)amino)ethyl)-4-fluorophenyl)acetamide] |
| > 6.00 | C[C@@H](Nc1c(Cl)cnc2ccc(-c3cnc(C(C)(C)O)nc3)cc12)c1cc(-c2ccnc(N)c2)ccc1F [Example 350, (R)-2-(5-(4-((1-(5-(2-aminopyridin-4-yl)-2-fluorophenyl)ethyl)amino)-3-chloroquinolin-6-yl)pyrimidin-2-yl)propan-2-ol] |
| 5.00 to 6.00 | C[C@@H](Nc1c(Cl)cnc2ccc(-c3cnc(C(C)(C)O)nc3)cc12)c1cccc(N2CCCC2=O)c1 [Example 363, (R)-1-(3-(1-((3-chloro-6-(2-(2-hydroxypropan-2-yl)pyrimidin-5-yl)quinolin-4-yl)amino)ethyl)phenyl)pyrrolidin-2-one] |
| > 6.00 | C[C@@H](Nc1c(Cl)cnc2ccc(-c3cnc(C(C)(C)O)nc3)cc12)c1cc(C(O)CO)ccc1F (single isomer, unassigned) [Example 401] |
| > 6.00 | Cc1nc2cc(F)c(-c3cnc(C(C)(C)O)nc3)cc2c(N[C@H](C)c2cc(C#N)ccc2F)c1Cl [Example 382, (R)-3-(1-((3-chloro-7-fluoro-6-(2-(2-hydroxypropan-2-yl)pyrimidin-5-yl)-2-methylquinolin-4-yl)amino)ethyl)-4-fluorobenzonitrile] |
| > 6.00 | C[C@@H](Nc1c(Cl)cnc2ccc(-c3cnc(N4CCN([C@@H](CN)C(=O)O)CC4)nc3)cc12)c1ccccc1F [Example 94, (S)-3-amino-2-(4-(5-(3-chloro-4-(((R)-1-(2-fluorophenyl)ethyl)amino)quinolin-6-yl)pyrimidin-2-yl)piperazin-1-yl)propanoic acid] |
| > 6.00 | CC(Nc1c(Cl)cnc2ccc(-c3ccc(C(C)(C)O)cc3)cc12)c1cn(C)cn1 (racemic) [Example 205, 2-(4-(3-chloro-4-((1-(1-methyl-1H-imidazol-4-yl)ethyl)amino)quinolin-6-yl)phenyl)propan-2-ol] |
| > 6.00 | C[C@@H](Nc1c(Cl)cnc2cc(F)c(-c3cnc(C(C)(C)O)nc3)cc12)c1cc(C(N)=O)ccc1F [Example 392, (R)-3-(1-((3-chloro-7-fluoro-6-(2-(2-hydroxypropan-2-yl)pyrimidin-5-yl)quinolin-4-yl)amino)ethyl)-4-fluorobenzamide] |
| > 6.00 | Cc1nc2ccc(-c3cnc(C(C)(C)O)nc3)cc2c(N[C@H](C)c2cc(C#N)ccc2F)c1C [Example 314, (R)-4-fluoro-3-(1-((6-(2-(2-hydroxypropan-2-yl)pyrimidin-5-yl)-2,3-dimethylquinolin-4-yl)amino)ethyl)benzonitrile] |
| 5.00 to 6.00 | C[C@@H](Nc1c(Cl)cnc2ccccc12)c1cc(-c2cc3ccccc3[nH]2)ccc1F [Example 528, (R)-3-chloro-N-(1-(2-fluoro-5-(1H-indol-2-yl)phenyl)ethyl)quinolin-4-amine] |
| > 6.00 | CC(Nc1c(Cl)cnc2ccc(-c3ccc(C(C)(C)O)cc3)cc12)c1ccoc1 (racemic) [Example 204, 2-(4-(3-chloro-4-((1-(furan-3-yl)ethyl)amino)quinolin-6-yl)phenyl)propan-2-ol] |
| 4.60 to 5.00 | CC(Nc1c(Cl)cnc2c(Cl)cc(Br)cc12)c1ccccc1F (racemic) [Example 122, 6-bromo-3,8-dichloro-N-(1-(2-fluorophenyl)ethyl)quinolin-4-amine] |
| > 6.00 | Cc1nc2ccc(-c3cnc(C(C)(C)O)nc3)cc2c(N[C@H](C)c2cc(C#N)ccc2F)c1Cl [Example 375, (R)-3-(1-((3-chloro-6-(2-(2-hydroxypropan-2-yl)pyrimidin-5-yl)-2-methylquinolin-4-yl)amino)ethyl)-4-fluorobenzonitrile] |
| > 6.00 | C[C@@H](Nc1c(Cl)cnc2ccc(-c3cnc(C(C)(C)O)nc3)cc12)c1cc(C=NO)ccc1F [Example 424, (R)-3-(1-((3-chloro-6-(2-(2-hydroxypropan-2-yl)pyrimidin-5-yl)quinolin-4-yl)amino)ethyl)-4-fluorobenzaldehyde oxime] |
| 5.00 to 6.00 | Cc1ccc(C)c(Nc2c(Cl)c(C(=O)O)nc3ccc(-c4ccc(C#N)nc4)cc23)c1 [Example 31, 3-chloro-6-(6-cyanopyridin-3-yl)-4-((2,5-dimethylphenyl)amino)quinoline-2-carboxylic acid] |
| > 6.00 | C[C@@H](Nc1c(Cl)cnc2ccc(-c3ccc(C4(NCCO)CCC4)cc3)cc12)c1ccccc1F [Example 568, (R)-2-((1-(4-(3-chloro-4-((1-(2-fluorophenyl)ethyl)amino)quinolin-6-yl)phenyl)cyclobutyl)amino)ethan-1-ol] |
